{"source": "paper PMC9607266", "about": "“Drug–Drug Interaction Study to Evaluate the Pharmacokinetics, Safety, and Tolerability of Ipatasertib in Combination with Darolutamide in Patients with Advanced Prostate Cancer” (Pharmaceutics, 2022)", "key": {"CYP3A4 [1]": {"tested_on": "CYP3A4", "set-up": "method as in PMID 35428895", "settings": "PBPK simulations, ipatasertib 400 mg QD; cited from earlier work"}, "CYP3A4 [2]": {"tested_on": "CYP3A4", "settings": "cited from earlier work"}, "[3]": {"settings": "cited from earlier work"}, "CYP3A4 [4]": {"tested_on": "CYP3A4", "settings": "in vitro studies; cited from earlier work"}, "[5]": {"set-up": "method as in PMID 27872130", "settings": "cited from earlier work"}, "[6]": {"assay": "Phase Ib DDI study: safety and tolerability (adverse events, ECG)", "assay_type": "in vivo, human", "text": "(§1) Figure 1 presents an overview of the study design.\nThe primary objectives of the study were to characterize the effect of darolutamide on the PK of ipatasertib and its M1 (G-037720) metabolite when administered alone versus in combination with darolutamide and to evaluate the safety and tolerability of the ipatasertib–darolutamide combination. The PK endpoints of the study were to evaluate the plasma PK parameters of ipatasertib and its M1 metabolite and evaluate the PK of darolutamide and its metabolite keto-darolutamide at a steady state of the combination treatment and compare this to historical data. Medications known to impact the PK of ipatasertib or darolutamide (both CY3PA4 substrates) were refrained from being administered during the study conducted and accordingly not co-administered. The safety endpoints of the study were to evaluate the incidences, nature, and severity of AEs and laboratory abnormalities, changes in vital signs, exposure to the study treatment, and to evaluate the changes in ECG parameters with particular focus on the QT interval corrected through the use of Fridericia’s formula (QTcF). The study achieved the first patient first visit on 21 December 2020, and the cut-off date for primary PK and safety analysis presented within this manuscript was 31 August 2021.\nThe safety and tolerability assessments consisted of monitoring and recording AEs, including SAEs and AEs of special interest, clinical laboratory assessments, vital signs, a 12 lead ECG, and physical examination. The AEs were recorded from the first admission until the discontinuation of visits. The AE severity was graded from Grade 1 to Grade 5 as per the National Cancer Institute Common Terminology Criteria for Adverse Events version 5.0. The relationship between the AEs and the study drug was indicated as related or not related. The AE terms reported were coded using the standard Medical Dictionary for Regulatory Activities version 24.0’s preferred terms. In order to manage any drug-related toxicities, ipatasertib and darolutamide modifications were specified as follows: An ipatasertib dose could be reduced in decrements of 100 mg up to 200 mg (can be reduced to two dose levels) beyond which the patient must discontinue ipatasertib but may continue treatment with darolutamide. In the case of darolutamide, the dose could be reduced from 600 mg BID to 300 mg BID until symptoms improve. Treatment may then be resumed at a dose of 600 mg, twice daily. A dose reduction below 300 mg BID for darolutamide was not recommended."}, "[7]": {"settings": "cited from earlier work", "remark": "listed apart in the source"}, "[8]": {"assay": "Phase Ib DDI study: plasma PK of ipatasertib and M1 after ipatasertib 400 mg QD alone and with darolutamide 600 mg BID", "assay_type": "in vivo", "settings": "male, human, oral", "description": "as §1\nStable labeled internal standards were used for both analytes.\nOnly median, min, and max were evaluated for Tmax.\nPharmacokinetic parameters (area under the curve (AUC0–tau) and Cmax,ss) were compared between Day 10 of Cycle 1 (ipatasertib alone, as the reference treatment) and Day 28 of Cycle 1 (combination of ipatasertib and darolutamide, as the test treatment) using SAS Version 9.4 by calculating geometric mean ratios and corresponding 90% confidence intervals (CIs) to evaluate the effect of darolutamide on the PK of ipatasertib and M1. A linear mixed model with a fixed effect for treatment and a random effect for patients was used on the natural log-transformed pharmacokinetic parameters. Point estimates for the means and point estimates and corresponding 90% confidence intervals (CIs) for the differences in means between the two treatments (reference and test treatments) were obtained from the linear mixed effects model and then exponentiated to obtain geometric means, geometric mean ratios, and respective 90% CIs on the original scale."}, "[9]": {"settings": "human, in vivo; cited from earlier work"}, "[10]": {"assay": "Phase Ib DDI study: plasma PK of darolutamide and keto-darolutamide at steady state in combination with ipatasertib", "settings": "human, in vivo", "description": "This was an open-label, multicenter, Phase Ib study designed to assess the safety, tolerability, and the drug–drug interaction of the combined administration of 400 mg QD oral ipatasertib and 600 mg BID oral darolutamide. […] For this study, no prospective calculations of the statistical power were made; the sample size selected was based on a typical sample size used for DDI studies. […] Figure 1 presents an overview of the study design.\nPlasma concentrations of ipatasertib and its metabolite M1 were determined using a previously reported, validated liquid chromatography–tandem mass spectrometry assay (LC-MS/MS). The lower and upper limit of the quantitation for ipatasertib and M1 was 0.500 ng/mL and 400 ng/mL, respectively. Stable labeled internal standards were used for both analytes. Plasma concentrations of darolutamide and keto-darolutamide were determined by a validated bioanalytical assay using supported liquid extraction and LC-MS/MS detection by Labcorp Early Drug Development Laboratories Inc. (Madison, WI, USA). […] The diastereomers of darolutamide, (S, R)-darolutamide, and (S, S)-darolutamide, were quantified as one entity from a single chromatographic peak. The MS/MS transitions monitored for detection were m/z 399.2 to 178.1 for darolutamide, m/z 397.1 to 136.0 for keto-darolutamide, and 478.2 to 221.0 for the internal standard apalutamide. […]"}, "[11]": {"settings": "itraconazole, strong CYP3A4 and P-gp inhibitor, 100 mg ipatasertib"}}, "note": "Read-outs that look alike come from different tables or passages of the source.", "data": [{"compound": "CC(C)NC[C@@H](C(=O)N1CCN(c2ncnc3c2[C@H](C)C[C@H]3O)CC1)c1ccc(Cl)cc1", "note": "[Ipatasertib]", "values": [{"measurement": "expected increase in midazolam exposure (AUC0–∞)", "setting": "CYP3A4 [1]", "result": "approximately 1.69 fold"}, {"measurement": "increase in midazolam AUC0–∞ exposures", "setting": "CYP3A4 [2]; ipatasertib at 600 mg QD", "result": 2.22, "unit": "fold"}, {"measurement": "increase in exposures when combined with abiraterone", "setting": "[3]; dedicated drug–drug interaction study", "result": "approximately 1.5 fold"}, {"measurement": "decrease in ipatasertib exposure when combined with enzalutamide", "setting": "[3]; enzalutamide, strong CYP3A4 inducer", "result": "approximately 50%"}, {"measurement": "increase in AUC0–∞ when combined with itraconazole", "setting": "[3]; [11]", "result": 5.45, "unit": "fold"}, {"measurement": "increase in Cmax when combined with itraconazole", "setting": "[3]; [11]", "result": 2.26, "unit": "fold"}, {"measurement": "CYP3A4 inhibition in vitro", "setting": "CYP3A4 [4]", "result": "time-dependent inhibitor of CYP3A4"}, {"measurement": "human plasma protein binding", "setting": "[5]", "result": "low"}, {"measurement": "Total number of deaths", "setting": "[6]; N = 14", "result": 0}, {"measurement": "patients with at least one AE leading to discontinuation of darolutamide", "setting": "[6]; male, human, in vivo", "result": "0 n (%)"}, {"measurement": "patients with at least one AE leading to discontinuation of ipatasertib", "setting": "[6]; male, human, in vivo", "result": "0 n (%)"}, {"measurement": "patients with at least one AE leading to dose interruption of darolutamide", "setting": "[6]; male, human, in vivo", "result": "0 n (%)"}, {"measurement": "patients with at least one AE leading to dose interruption of ipatasertib", "setting": "[6]; male, human, in vivo", "result": "0 n (%)"}, {"measurement": "patients with at least one AE leading to dose reduction of darolutamide", "setting": "[6]; male, human, in vivo", "result": "0 n (%)"}, {"measurement": "patients with at least one AE leading to dose reduction of ipatasertib", "setting": "[6]; male, human, in vivo", "result": "0 n (%)"}, {"measurement": "patients with at least one AE related to any treatment", "setting": "[6]; male, human, in vivo", "result": "1 (7.1) n (%)"}, {"measurement": "patients with at least one AE related to darolutamide only", "setting": "[6]; male, human, in vivo", "result": "0 n (%)"}, {"measurement": "patients with at least one AE related to ipatasertib only", "setting": "[6]; male, human, in vivo", "result": "1 (7.1) n (%)"}, {"measurement": "patients with at least one Grade 5 AE", "setting": "[6]; male, human, in vivo", "result": "0 n (%)"}, {"measurement": "patients with at least one Grade ≥ 3 AE", "setting": "[6]; male, human, in vivo", "result": "0 n (%)"}, {"measurement": "patients with at least one Serious AE", "setting": "[6]; male, human, in vivo", "result": "0 n (%)"}, {"measurement": "patients with at least one: Any treatment discontinuation", "setting": "[6]; male, human, in vivo", "result": "0 n (%)"}, {"measurement": "patients with diarrhea of Grade 1", "setting": "[6]; male, human, in vivo", "result": 7.1, "unit": "%"}, {"measurement": "time to steady-state", "setting": "[7]; 400 mg QD dose", "result": "≤ 7", "unit": "days"}, {"measurement": "median time to maximum concentration (Tmax)", "setting": "[7]; across 25–800 mg doses in patients with cancer", "result": "0.5 to 3", "unit": "h"}, {"measurement": "exposures following a high-fat meal versus fasted conditions", "setting": "[7]", "result": "comparable"}, {"measurement": "median half-life (t1/2)", "setting": "[7]; oral doses in the range of 200–800 mg, range 27.8–66.9 h", "result": 45.0, "unit": "h"}, {"measurement": "AUC", "setting": "[8]; 400 mg, Reference = ipatasertib only, n = 13, linear mixed model, read-out: AUC0–tau,ss, Reference Geometric Mean", "result": 2610, "unit": "ng·h/mL"}, {"measurement": "Cmax", "setting": "[8]; 400 mg, Reference = ipatasertib only, n = 13, linear mixed model, read-out: Cmax,ss, Reference Geometric Mean", "result": 452, "unit": "ng/mL"}, {"measurement": "Cmax", "setting": "[8]; 400 mg, ipatasertib 400 mg QD alone, Cycle 1 Day 10, n = 14, geometric mean (%CV), read-out: Cmax,ss", "result": 462, "unit": "ng/mL"}, {"measurement": "AUC", "setting": "[8]; 400 mg, ipatasertib 400 mg QD alone, Cycle 1 Day 10, n = 14, geometric mean (%CV), tau = 24 h, mCRPC patients, read-out: AUC0–tau,ss", "result": 2660, "unit": "ng·h/mL"}, {"measurement": "AUC", "setting": "[8]; Test = ipatasertib with darolutamide, n = 13, linear mixed model, read-out: AUC0–tau,ss, Test Geometric Mean", "result": 2400, "unit": "ng·h/mL"}, {"measurement": "Cmax", "setting": "[8]; Test = ipatasertib with darolutamide, n = 13, linear mixed model, read-out: Cmax,ss, Test Geometric Mean", "result": 355, "unit": "ng/mL"}, {"measurement": "AUC(0-t)", "setting": "[8]; ipatasertib 400 mg QD alone, Cycle 1 Day 10, n = 14, geometric mean (%CV)", "result": 2670, "unit": "ng·h/mL"}, {"measurement": "Tmax", "setting": "[8]; ipatasertib 400 mg QD alone, Cycle 1 Day 10, n = 14, median (min, max)", "result": 1.04, "unit": "h"}, {"measurement": "AUC(0-t)", "setting": "[8]; ipatasertib 400 mg QD with darolutamide 600 mg BID, Cycle 1 Day 28, n = 13, geometric mean (%CV)", "result": 2400, "unit": "ng·h/mL"}, {"measurement": "Cmax", "setting": "[8]; ipatasertib 400 mg QD with darolutamide 600 mg BID, Cycle 1 Day 28, n = 13, geometric mean (%CV), read-out: Cmax,ss", "result": 355, "unit": "ng/mL"}, {"measurement": "AUC", "setting": "[8]; ipatasertib 400 mg QD with darolutamide 600 mg BID, Cycle 1 Day 28, n = 13, geometric mean (%CV), tau = 24 h, read-out: AUC0–tau,ss", "result": 2400, "unit": "ng·h/mL"}, {"measurement": "Tmax", "setting": "[8]; ipatasertib 400 mg QD with darolutamide 600 mg BID, Cycle 1 Day 28, n = 13, median (min, max)", "result": 2, "unit": "h"}]}, {"compound": "CC(=O)c1cc(C(=O)N[C@@H](C)Cn2ccc(-c3ccc(C#N)c(Cl)c3)n2)[nH]n1", "note": "[Keto-darolutamide, keto-darolutamide]", "values": [{"measurement": "AUC0–12 h,ss", "setting": "[9]", "result": 82800, "unit": "ng·h/mL"}, {"measurement": "AUC0–t,ss", "setting": "[9]", "result": "82.8 (39.5) h·µg/mL"}, {"measurement": "Cmax,ss", "setting": "[9]", "result": "9.4 (35.4) µg/mL"}, {"measurement": "effective t1/2", "setting": "[9]", "result": "approximately 20 h"}, {"measurement": "Tmax,ss", "setting": "[10]", "result": "4.13 (1.00, 8.25) h"}]}, {"compound": "CNC(=O)c1ccc(N2C(=S)N(c3ccc(C#N)c(C(F)(F)F)c3)C(=O)C2(C)C)cc1F", "note": "[enzalutamide]", "values": [{"measurement": "reduction of midazolam exposures", "setting": "CYP3A4 [2]; midazolam in combination with enzalutamide, strong CYP3A4 inducer", "result": "approximately 85%"}]}]}
